Legend:
[1] = tested on: A549-Luc-BM1 cells in the mouse tibia; assay: Tumor-induced bone disease model, intra-tibial A549-Luc-BM1, bioluminescence imaging; type: in vivo, BALB/c nude mice; details: for tumor growth inhibition percentage (TGI): day 28, 4 weeks, oral once daily TAS-115 200 mg/kg, cabozantinib 15 mg/kg, sunitinib 40 mg/kg, crizotinib 100 mg/kg, ZA 0.2 mg/kg s.c. twice weekly
Procedure: Tumor growth in the tibiae was monitored by bioluminescence imaging using an IVIS Lumina II Imaging System (PerkinElmer, MA). […] Images were analyzed using the Living Image 3.1 software (PerkinElmer). Total photon flux (TP) was calculated by summation of the photon flux of ventral and right lateral images. One week post tumor implantation, 8–9 animals were allocated to each experimental group by a stratified randomization method with SAS version 9.2 (SAS Institute Japan, Tokyo, Japan) using TP as an allocation parameter, following which drug treatment was then started. […] The doses of each drug were selected based on the maximum tolerated dose (MTD) in in-house studies (data not shown). […] Zoledronic acid (ZA) was subcutaneously injected twice weekly for 4 weeks at a dose of 0.2 mg/kg, which was a previously reported efficacious dose. The allocation day was set as day 0, and drug administration was initiated from day 1. As an indicator of changes in tumor growth during the dosing period, relative total photon flux (RTP), was calculated according to the following formula: RTPday n = (TP on each measurement day) / (TPday 0) × 100. TPday 0 is the TP on the allocation day.

[2] = tested on: TRAP-positive osteoclasts at tumor-bone boundary; assay: TRAP staining of A549-Luc-BM1-implanted tibiae, osteoclast number; type: in vivo, BALB/c nude mice; details: 2 weeks oral; TAS-115 200, cabozantinib 15, sunitinib 40, crizotinib 100 mg/kg, combination; vs control
Procedure: On day 15, the mice were euthanized by cervical dislocation under isoflurane anesthesia, and their tibiae were collected. For CD31 staining, frozen sections (3 μm thick) were prepared using Kawamoto’s film method. Purified Rat Anti-Mouse CD31 (1:100, BD Pharmingen^TM) was detected using Simple Stain^TM Mouse MAX PO (Rat) (Nichirei) and 3,3’-diaminobenzidine (Dako, Glostrup, Denmark). For Ki-67 and TRAP staining, formalin-fixed paraffin-embedded sections (2 μm thick) were prepared. Anti-human Ki-67 Rabbit Monoclonal Antibody (1:50, Epitomics) was detected using the EnVisionTM^+ System (Dako). TRAP staining was performed using the TRAP/ALP Stain Kit (Wako Pure chemical Industries, Ltd.). To quantify each staining, whole slides were scanned under 20× magnification with the Aperio Scan-Scope XT Slide Scanner (Aperio Technologies, Inc., CA). To quantify CD31-positive microvessels as microvessel density (MVD, number/mm^2), four fields of tumor area per section excluding bone and necrotic tissue were analyzed by using Image-Pro Plus (Media Cybernetics, Inc., Carlsbad, CA). […] Ki-67-positive cells and total tumor cells were counted by using Image-Pro Plus. The Ki-67 index is expressed as a percentage (the number of Ki-67-positive tumor cells / the total number of the tumor cells × 100). […] The boundary length was calculated by Image-Pro Plus. […]

[3] = tested on: A549-Luc-BM1-implanted tibia; assay: Bone morphometrical analyses by micro-CT; type: in vivo, BALB/c nude mice; details: for A549-Luc-BM1-induced changes in bone parameters (BV, TV, BMD, vBMD): micro-CT after 4 weeks dosing, TAS-115 200, cabozantinib 15, sunitinib 40, crizotinib 100 mg/kg oral, vs control
Procedure: On day 29, the mice were euthanized by cervical dislocation under isoflurane anesthesia, and subsequently the A549-Luc-BM1-implanted tibia was removed and was fixed in 4% paraformaldehyde solution. Micro-CT imaging was performed by using Rm_CT2 (Rigaku corporation, Tokyo, Japan) with the following parameters: 90 kV, 160 μA, 3 min exposure, 10 mm field of view (20 μm voxel size). After scanning, 3D reconstruction was performed to produce a series of cross-sectional images by using specific software (3D Viewer Version 3.00.01, Rigaku corporation). In addition, bone mineral density (BMD) and 3D morphometrical primary parameters, including total volume (TV) and bone volume (BV), were calculated by using bone microstructure software (TRI/3D-BON-FCS64, Ratoc System Engineering, Tokyo, Japan). Volumetric BMD (vBMD), which has been reported to be a good index of osteoporosis, was calculated from primary parameters using the following formula: vBMD = BMD × BV / TV.

[4] = target: T1, Recombinant human FMS dephosphorylated with lambda phosphatase (dephospho-rhFMS) (Homo sapiens, UniProt P07333); assay: In vitro kinase assay, recombinant dephospho-FMS (LANCE Ultra TR-FRET); type: biochemical; details: 100 μM ATP
T1 sequence (P07333 538-972): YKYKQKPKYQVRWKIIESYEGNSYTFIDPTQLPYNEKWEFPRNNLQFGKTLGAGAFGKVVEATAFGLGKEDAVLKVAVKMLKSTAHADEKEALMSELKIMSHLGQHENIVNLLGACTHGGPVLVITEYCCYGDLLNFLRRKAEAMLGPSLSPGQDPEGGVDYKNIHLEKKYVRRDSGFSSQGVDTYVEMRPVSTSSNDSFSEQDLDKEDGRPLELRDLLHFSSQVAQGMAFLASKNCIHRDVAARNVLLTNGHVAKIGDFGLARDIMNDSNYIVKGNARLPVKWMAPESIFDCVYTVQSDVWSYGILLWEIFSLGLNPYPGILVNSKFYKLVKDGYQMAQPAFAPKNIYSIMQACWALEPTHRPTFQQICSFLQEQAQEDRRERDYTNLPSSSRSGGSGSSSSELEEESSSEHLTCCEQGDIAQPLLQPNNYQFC
Procedure: Enzyme inhibition studies were performed using LANCE® Ultra TR-FRET assay technology. Briefly, 0.03 μg/mL dephospho-rhFMS and 100 nM ULightTM-poly GT (4:1) (PerkinElmer) were mixed and incubated for 40 min at 25°C in 10 μL of reaction mixture containing 100 μM ATP, 15 mM tris (hydroxymethyl) aminomethane (Tris (pH 7.5)), 0.01% (v/v) Tween 20, 5 mM MgCl2, 2 mM dithiothreitol and various concentrations of the test compound. […] By referring to the TR-FRET signals of positive (no inhibitor) and negative (EDTA was added before the reaction was started) control wells, the percent inhibition of each well was calculated and the half-maximal inhibitory concentration (IC50) value was determined using a four-parameter sigmoidal equation. The assay of MET and VEGFR2 kinase activity was performed as described previously.

[5] = tested on: A549-Luc-BM1-implanted tibiae; assay: CD31 staining, microvessel density in bone lesion; type: in vivo, BALB/c nude mice; details: 2 weeks oral; TAS-115 100 mg/kg, cabozantinib 15, crizotinib 100, sunitinib 40 mg/kg; vs control
Procedure: On day 15, the mice were euthanized by cervical dislocation under isoflurane anesthesia, and their tibiae were collected. For CD31 staining, frozen sections (3 μm thick) were prepared using Kawamoto’s film method. Purified Rat Anti-Mouse CD31 (1:100, BD Pharmingen^TM) was detected using Simple Stain^TM Mouse MAX PO (Rat) (Nichirei) and 3,3’-diaminobenzidine (Dako, Glostrup, Denmark). For Ki-67 and TRAP staining, formalin-fixed paraffin-embedded sections (2 μm thick) were prepared. Anti-human Ki-67 Rabbit Monoclonal Antibody (1:50, Epitomics) was detected using the EnVisionTM^+ System (Dako). TRAP staining was performed using the TRAP/ALP Stain Kit (Wako Pure chemical Industries, Ltd.). To quantify each staining, whole slides were scanned under 20× magnification with the Aperio Scan-Scope XT Slide Scanner (Aperio Technologies, Inc., CA). To quantify CD31-positive microvessels as microvessel density (MVD, number/mm^2), four fields of tumor area per section excluding bone and necrotic tissue were analyzed by using Image-Pro Plus (Media Cybernetics, Inc., Carlsbad, CA). The mean values of the four areas were considered as the MVD of each animal. […] Ki-67-positive cells and total tumor cells were counted by using Image-Pro Plus. The Ki-67 index is expressed as a percentage (the number of Ki-67-positive tumor cells / the total number of the tumor cells × 100). The numbers of TRAP-positive osteoclasts were counted, and are expressed as the TRAP-positive osteoclast labeling index, (the number of TRAP-positive cells / the length of the boundary between tumor and trabecular bone (number/mm)). Cells that were TRAP-positive, had more than one nucleus, and were found on the surface of the bone, were identified as osteoclasts. The boundary length was calculated by Image-Pro Plus. All histopathological analyses were conducted in a blinded manner.

[6] = tested on: FMS, ERK1/2 and AKT phosphorylation in MDBMs; assay: In vitro MDBM signaling, M-CSF-stimulated FMS phosphorylation; type: cell-based, mouse; details: Western blotting, cabozantinib, crizotinib at 0.3 μM, sunitinib positive control compared with TAS-115
Procedure: For analysis of the expression and phosphorylation levels of FMS, MET and VEGFR2, MDBMs were cultured with hM-CSF (20000 U/mL) for 4 days (400000 cells/dish in Suspension Culture Dishes (Corning Inc., NY). The phosphorylation levels of FMS and downstream signaling molecules were then analyzed in these MDBMs following incubation for 1 hr with test compounds at the indicated concentration. The phosphorylation of MET or VEGFR2 was analyzed in these MDBMs following stimulation with rhHGF (100 ng/mL, 10 min) or rhVEGF (100 ng/mL, 5 min), respectively. After incubation, the MDBMs were harvested, the cells were lysed and target signaling proteins were detected by immunoblotting. For analysis of VEGFR2 and its phosphorylated form, the lysate was immunoprecipiated with an anti-VEGFR antibody prior to immunoblotting.

[7] = tested on: M-CSF dependent bone marrow macrophages (MDBMs); assay: In vitro osteoclast differentiation assay (TRAP activity); type: cell-based, mouse; details: MDBMs with hM-CSF and rhsRANKL for 4 days
Procedure: To prepare macrophage colony-stimulating factor (M-CSF) dependent bone marrow macrophages (MDBMs), bone marrow cells were obtained from the femurs of male BALB/c mice (CLEA Japan) and adherent cells were cultured with human M-CSF (hM-CSF; 10000 U/mL) for 6 days. MDBMs were collected and cultured with hM-CSF (10000 U/mL) and recombinant human soluble RANKL (rhsRANKL)-GST (5 nM) for 4 days (25000 cells/well in a 96 well flat plate) for induction of differentiation into osteoclasts. Test compounds were then added to the culture media at the indicated concentration. TRAP activities were measured using the commercially available TRACP and ALP Assay Kit (TAKARA BIO INC).

[8] = Body weight change in the bone disease model; type: in vivo, BALB/c nude mice; details: 4 weeks of treatment; TAS-115 200 mg/kg, crizotinib 100 mg/kg, sunitinib 40 mg/kg with crizotinib 100 mg/kg, oral once daily
Procedure: Changes in body weight (BW) during the dosing period were determined using body weight change (BWC; %) as an indicator, which was calculated using the following formula: BWC; % = 100 × ((BW on each measurement day)–(BWday 0)) / (BWday 0). BWday 0 is the BW on the allocation day. The schedule for the in vivo study is depicted in the Supporting Information (S1 Fig).

[9] = tested on: A549-Luc-BM1 cells; assay: Proliferation of A549-Luc-BM1 cells (CellTiter-Glo); type: cell-based; details: Homo sapiens, 72 hr post drug addition, read-out: 50% growth inhibitory concentration (GI50) for A549-Luc-BM1 cells
Procedure: Supplementary file pone.0164830.s002.tif: S2 Fig The effect of TAS-115 on the proliferation of A549-Luc-BM1 cells. A549-Luc-BM1 cells were seeded on 96 well plates at a density of 10^3 cells/well in RPMI1640 containing 10% FBS. […] At 72 hr post drug addition, cell viability was determined using CellTiter-Glo^TM. The 50% growth inhibition (GI50) values were determined using SAS version 9.2. (TIF) Click here for additional data file.

SMILES	tumor growth inhibition percentage (TGI) [1]	number of TRAP-positive osteoclasts at tumor-bone boundary [2]	A549-Luc-BM1-induced changes in bone parameters (BV, TV, BMD, vBMD) [3]	IC50 [4]	microvessel density (MVD) within the tumor area in the bone lesion [5]	inhibition of M-CSF-stimulated phosphorylation of FMS, ERK1/2 and AKT (in words) [6]	effect on tumor growth in the tibia (bioluminescence) ([1]; crizotinib 100 mg/kg oral once daily for 4 weeks)	concentration that potently inhibited / markedly affected RANKL and M-CSF-induced mouse osteoclast formation [7]	effect on body weight [8]	GI50 [9]	total volume (TV) compared with the control group ([3]; micro-CT, ZA 0.2 mg/kg s.c. twice weekly for 4 weeks)	BMD, BV, and vBMD compared with control ([3]; micro-CT, ZA 0.2 mg/kg s.c. twice weekly for 4 weeks, each value higher than normal group)
COc1cc2nccc(Oc3ccc(NC(=O)C4(C(=O)Nc5ccc(F)cc5)CC4)cc3)c2cc1OC [Cabozantinib]	73%	did not affect	significantly suppressed all of the changes	79 nM	significantly reduced	moderate	–	–	–	–	–	–
C[C@@H](Oc1cc(-c2cnn(C3CCNCC3)c2)cnc1N)c1c(Cl)ccc(F)c1Cl [Crizotinib]	–	–	did not affect any changes in the parameters	–	did not affect	moderate	did not impact on tumor growth at all	1 µM	did suppress body weight gain	1100 nM	–	–
CCN(CC)CCNC(=O)c1c(C)[nH]c(/C=C2\C(=O)Nc3ccc(F)cc32)c1C [Sunitinib]	75%	–	significantly inhibited A549-Luc-BM1-induced changes in BV and TV, but not in BMD or vBMD	–	significantly reduced	comparable	–	–	–	–	–	–
O=P(O)(O)C(O)(Cn1ccnc1)P(=O)(O)O [ZA, zoledronic acid]	27%	–	–	–	–	–	–	–	–	–	significantly decreased	significantly increased

Reference: paper PMC5063576, “High Potency VEGFRs/MET/FMS Triple Blockade by TAS-115 Concomitantly Suppresses Tumor Progression and Bone Destruction in Tumor-Induced Bone Disease Model with Lung Carcinoma Cells” (PLoS ONE, 2016)
